Reference: the NIST ThermoML archive (doi:10.1016/j.jct.2005.10.002)
± gives the expanded uncertainty stated by the source.

Details: Liquid

## CCC(O)(CC)CC [3-ethyl-3-pentanol]
303.15 K, 100 kPa
  speed of sound: 1269.7 ± 4 m/s
303.15 K, 10000 kPa
  speed of sound: 1326.5 ± 4.1 m/s
303.15 K, 20000 kPa
  speed of sound: 1379.5 ± 4.2 m/s
303.15 K, 30000 kPa
  speed of sound: 1429.1 ± 4.3 m/s
303.15 K, 40000 kPa
  speed of sound: 1474.3 ± 4.4 m/s
303.15 K, 50000 kPa
  speed of sound: 1515.9 ± 4.5 m/s
303.15 K, 60000 kPa
  speed of sound: 1556.7 ± 4.6 m/s
303.15 K, 70000 kPa
  speed of sound: 1594.7 ± 4.7 m/s
303.15 K, 80000 kPa
  speed of sound: 1632.3 ± 4.8 m/s
303.15 K, 90000 kPa
  speed of sound: 1667.3 ± 4.9 m/s
303.15 K, 100000 kPa
  speed of sound: 1700.2 ± 4.9 m/s
313.15 K, 100 kPa
  speed of sound: 1229.3 ± 3.9 m/s
313.15 K, 10000 kPa
  speed of sound: 1289.3 ± 4 m/s
313.15 K, 20000 kPa
  speed of sound: 1346 ± 4.2 m/s
313.15 K, 30000 kPa
  speed of sound: 1393.8 ± 4.3 m/s
313.15 K, 40000 kPa
  speed of sound: 1440.8 ± 4.4 m/s
313.15 K, 50000 kPa
  speed of sound: 1484.5 ± 4.5 m/s
313.15 K, 60000 kPa
  speed of sound: 1526 ± 4.6 m/s
313.15 K, 70000 kPa
  speed of sound: 1564.6 ± 4.6 m/s
313.15 K, 80000 kPa
  speed of sound: 1602.2 ± 4.7 m/s
313.15 K, 90000 kPa
  speed of sound: 1638.3 ± 4.8 m/s
313.15 K, 100000 kPa
  speed of sound: 1672.4 ± 4.9 m/s
323.15 K, 100 kPa
  speed of sound: 1189.8 ± 3.8 m/s
323.15 K, 10000 kPa
  speed of sound: 1255.2 ± 4 m/s
323.15 K, 20000 kPa
  speed of sound: 1311.9 ± 4.1 m/s
323.15 K, 30000 kPa
  speed of sound: 1364.3 ± 4.2 m/s
323.15 K, 40000 kPa
  speed of sound: 1412.8 ± 4.3 m/s
323.15 K, 50000 kPa
  speed of sound: 1459 ± 4.4 m/s
323.15 K, 60000 kPa
  speed of sound: 1500.7 ± 4.5 m/s
323.15 K, 70000 kPa
  speed of sound: 1541 ± 4.6 m/s
323.15 K, 80000 kPa
  speed of sound: 1580.4 ± 4.7 m/s
323.15 K, 90000 kPa
  speed of sound: 1616.9 ± 4.8 m/s
323.15 K, 100000 kPa
  speed of sound: 1651.3 ± 4.8 m/s
333.15 K, 100 kPa
  speed of sound: 1152.4 ± 3.8 m/s
333.15 K, 10000 kPa
  speed of sound: 1217.3 ± 3.9 m/s
333.15 K, 20000 kPa
  speed of sound: 1277.4 ± 4 m/s
333.15 K, 30000 kPa
  speed of sound: 1330.3 ± 4.1 m/s
333.15 K, 40000 kPa
  speed of sound: 1379.9 ± 4.2 m/s
333.15 K, 50000 kPa
  speed of sound: 1426.5 ± 4.3 m/s
333.15 K, 60000 kPa
  speed of sound: 1470.6 ± 4.4 m/s
333.15 K, 70000 kPa
  speed of sound: 1511 ± 4.5 m/s
333.15 K, 80000 kPa
  speed of sound: 1550.1 ± 4.6 m/s
333.15 K, 90000 kPa
  speed of sound: 1587.4 ± 4.7 m/s
333.15 K, 100000 kPa
  speed of sound: 1622.8 ± 4.8 m/s
343.15 K, 100 kPa
  speed of sound: 1113 ± 3.7 m/s
343.15 K, 10000 kPa
  speed of sound: 1180.3 ± 3.8 m/s
343.15 K, 20000 kPa
  speed of sound: 1241.1 ± 3.9 m/s
343.15 K, 30000 kPa
  speed of sound: 1297.2 ± 4.1 m/s
343.15 K, 40000 kPa
  speed of sound: 1349.5 ± 4.2 m/s
343.15 K, 50000 kPa
  speed of sound: 1396 ± 4.3 m/s
343.15 K, 60000 kPa
  speed of sound: 1441.1 ± 4.4 m/s
343.15 K, 70000 kPa
  speed of sound: 1482.7 ± 4.5 m/s
343.15 K, 80000 kPa
  speed of sound: 1522 ± 4.5 m/s
343.15 K, 90000 kPa
  speed of sound: 1560.4 ± 4.6 m/s
343.15 K, 100000 kPa
  speed of sound: 1596.4 ± 4.7 m/s
353.15 K, 100 kPa
  speed of sound: 1073.7 ± 3.6 m/s
353.15 K, 10000 kPa
  speed of sound: 1144 ± 3.7 m/s
353.15 K, 20000 kPa
  speed of sound: 1207.5 ± 3.9 m/s
353.15 K, 30000 kPa
  speed of sound: 1264.4 ± 4 m/s
353.15 K, 40000 kPa
  speed of sound: 1317.4 ± 4.1 m/s
353.15 K, 50000 kPa
  speed of sound: 1366 ± 4.2 m/s
353.15 K, 60000 kPa
  speed of sound: 1411.1 ± 4.3 m/s
353.15 K, 70000 kPa
  speed of sound: 1454.8 ± 4.4 m/s
353.15 K, 80000 kPa
  speed of sound: 1494.6 ± 4.5 m/s
353.15 K, 90000 kPa
  speed of sound: 1533.6 ± 4.6 m/s
353.15 K, 100000 kPa
  speed of sound: 1570.4 ± 4.7 m/s
363.15 K, 100 kPa
  speed of sound: 1034.6 ± 3.5 m/s
363.15 K, 10000 kPa
  speed of sound: 1107.3 ± 3.7 m/s
363.15 K, 20000 kPa
  speed of sound: 1172.7 ± 3.8 m/s
363.15 K, 30000 kPa
  speed of sound: 1232.5 ± 3.9 m/s
363.15 K, 40000 kPa
  speed of sound: 1286.4 ± 4 m/s
363.15 K, 50000 kPa
  speed of sound: 1336.4 ± 4.1 m/s
363.15 K, 60000 kPa
  speed of sound: 1383.4 ± 4.2 m/s
363.15 K, 70000 kPa
  speed of sound: 1427.4 ± 4.3 m/s
363.15 K, 80000 kPa
  speed of sound: 1467.9 ± 4.4 m/s
363.15 K, 90000 kPa
  speed of sound: 1507.1 ± 4.5 m/s
363.15 K, 100000 kPa
  speed of sound: 1544.3 ± 4.6 m/s
373.15 K, 100 kPa
  speed of sound: 994.7 ± 3.4 m/s
373.15 K, 10000 kPa
  speed of sound: 1072 ± 3.6 m/s
373.15 K, 20000 kPa
  speed of sound: 1139.6 ± 3.7 m/s
373.15 K, 30000 kPa
  speed of sound: 1200.6 ± 3.9 m/s
373.15 K, 40000 kPa
  speed of sound: 1256.3 ± 4 m/s
373.15 K, 50000 kPa
  speed of sound: 1307.4 ± 4.1 m/s
373.15 K, 60000 kPa
  speed of sound: 1354.2 ± 4.2 m/s
373.15 K, 70000 kPa
  speed of sound: 1400 ± 4.3 m/s
373.15 K, 80000 kPa
  speed of sound: 1440.9 ± 4.4 m/s
373.15 K, 90000 kPa
  speed of sound: 1481.4 ± 4.5 m/s
373.15 K, 100000 kPa
  speed of sound: 1519.4 ± 4.5 m/s
